Source: the CheMixHub viscosity set
“And” between values parts separate entries of the source, which are not always exact repeats. Equal entries are not always repeated. ± gives the uncertainty stated by the source.

Assay: xn = mol fraction of the nth substance listed

N#CCc1ccccc1 + ClC(Cl)C(Cl)Cl
Conditions	viscosity [mPa·s]
313.15 K, 101 kPa, x1 = 0.7131	1.645 ± 0.021

C1=CCCCC1 + ClC(Cl)Cl
303.15 K, 101 kPa
Conditions	viscosity [mPa·s]
x1 = 0.1005	0.62 ± 0.008
x1 = 0.2478	0.604 ± 0.008
x1 = 0.3282	0.595 ± 0.008
x1 = 0.4351	0.585 ± 0.008
x1 = 0.4917	0.581 ± 0.008
x1 = 0.629	0.575 ± 0.007
x1 = 0.7454	0.573 ± 0.007
x1 = 0.8452	0.571 ± 0.007

N#CCc1ccccc1 + ClC=C(Cl)Cl
Conditions	viscosity [mPa·s]
303.15 K, 101 kPa, x1 = 0.819	1.455 ± 0.019

N#CCc1ccccc1 + ClCCCl
101 kPa
Conditions	viscosity [mPa·s]
303.15 K, x1 = 0.9705	1.725 ± 0.023
313.15 K, x1 = 0.648	1.165 ± 0.016

CCC(C)CO (stereo not drawn) + O
298.15 K, 101 kPa
Conditions	viscosity [mPa·s]
x2 = 0.0025	4.797 ± 0.044
x2 = 0.0548	4.447 ± 0.044
x2 = 0.0985	4.284 ± 0.044
x2 = 0.1421	4.163 ± 0.046
x2 = 0.1741	4.101 ± 0.047
x2 = 0.1943	4.07 ± 0.048
x2 = 0.2403	4.025 ± 0.05
x2 = 0.2657	4.011 ± 0.052
x2 = 0.2859	4.01 ± 0.053
x2 = 0.2923	4.005 ± 0.053
x2 = 0.3149	4.005 ± 0.055

CCCC[N+]1(C)CCCC1.N#C[S-] + O
Conditions	viscosity [mPa·s]
298.15 K, 101 kPa, x1 = 0.9147	91.83 ± 15

CCNC(C)=O + O
298.16 K, 101 kPa
Conditions	viscosity [mPa·s]
x2 = 0.0826	6.11 ± 0.05
x2 = 0.1593	6.33 ± 0.05
x2 = 0.2575	6.67 ± 0.05
x2 = 0.3475	6.96 ± 0.05
x2 = 0.427	7.14 ± 0.05
x2 = 0.4728	7.18 ± 0.05
x2 = 0.5438	7.12 ± 0.05
x2 = 0.585	6.98 ± 0.05
x2 = 0.7047	6.14 ± 0.05
x2 = 0.7459	5.72 ± 0.05

NCC(=O)NCC(=O)O + O
viscosity
Conditions	293.15 K	298.15 K	303.15 K	308.15 K	313.15 K	318.15 K	323.15 K
100 kPa, x1 = 0.000887	–	0.9004 ± 0.019 mPa·s	–	0.7285 ± 0.015 mPa·s	0.6622 ± 0.014 mPa·s	0.6045 ± 0.013 mPa·s	–
100 kPa, x1 = 0.00175	–	0.907 ± 0.019 mPa·s	0.8135 ± 0.017 mPa·s	0.7349 ± 0.015 mPa·s	0.6683 ± 0.014 mPa·s	0.6105 ± 0.013 mPa·s	–
100 kPa, x1 = 0.002593	–	0.9129 ± 0.019 mPa·s	0.8194 ± 0.017 mPa·s	0.7408 ± 0.015 mPa·s	0.6742 ± 0.014 mPa·s	0.6162 ± 0.013 mPa·s	–
100 kPa, x1 = 0.003411	–	0.9185 ± 0.019 mPa·s	0.8251 ± 0.017 mPa·s	0.7465 ± 0.016 mPa·s	0.6797 ± 0.014 mPa·s	0.6216 ± 0.013 mPa·s	–
100 kPa, x1 = 0.004207	–	0.9239 ± 0.019 mPa·s	0.8307 ± 0.017 mPa·s	0.752 ± 0.016 mPa·s	0.685 ± 0.014 mPa·s	0.6269 ± 0.013 mPa·s	–
100 kPa, x1 = 0.004983	–	0.9292 ± 0.019 mPa·s	0.836 ± 0.017 mPa·s	0.7573 ± 0.016 mPa·s	0.6904 ± 0.014 mPa·s	0.6322 ± 0.013 mPa·s	–
100 kPa, x1 = 0.005739	–	0.9343 ± 0.019 mPa·s	0.8413 ± 0.017 mPa·s	0.7627 ± 0.016 mPa·s	0.6957 ± 0.015 mPa·s	0.6374 ± 0.013 mPa·s	–
100 kPa, x1 = 0.006476	–	0.9394 ± 0.02 mPa·s	0.8465 ± 0.018 mPa·s	0.7679 ± 0.016 mPa·s	0.7006 ± 0.015 mPa·s	0.6425 ± 0.013 mPa·s	–
101.3 kPa, x1 = 0.002	1.04 ± 0.06 mPa·s and 1.04 ± 0.04 mPa·s	–	0.82 ± 0.05 mPa·s and 0.82 ± 0.03 mPa·s	–	0.67 ± 0.04 mPa·s and 0.67 ± 0.03 mPa·s	–	0.56 ± 0.03 mPa·s and 0.56 ± 0.02 mPa·s
101.3 kPa, x1 = 0.004	1.08 ± 0.07 mPa·s and 1.08 ± 0.04 mPa·s	–	0.85 ± 0.05 mPa·s and 0.85 ± 0.03 mPa·s	–	0.69 ± 0.04 mPa·s and 0.69 ± 0.03 mPa·s	–	0.59 ± 0.04 mPa·s and 0.59 ± 0.02 mPa·s
101.3 kPa, x1 = 0.005	1.1 ± 0.07 mPa·s and 1.1 ± 0.04 mPa·s	–	0.87 ± 0.05 mPa·s and 0.87 ± 0.04 mPa·s	–	0.71 ± 0.04 mPa·s and 0.71 ± 0.03 mPa·s	–	0.6 ± 0.04 mPa·s and 0.6 ± 0.02 mPa·s
101.3 kPa, x1 = 0.007	1.14 ± 0.07 mPa·s and 1.14 ± 0.05 mPa·s	–	0.9 ± 0.05 mPa·s and 0.9 ± 0.04 mPa·s	–	0.74 ± 0.05 mPa·s and 0.74 ± 0.03 mPa·s	–	0.62 ± 0.04 mPa·s and 0.62 ± 0.03 mPa·s

O=C(O)/C=C\C(=O)O + O
viscosity [mPa·s], 101.32 kPa
Conditions	x1 = 0.0171	x1 = 0.03648	x1 = 0.06231	x1 = 0.0943	x1 = 0.145
298.15 K	1.092 ± 0.026	1.349 ± 0.03	1.775 ± 0.035	2.459 ± 0.043	–
313.15 K	0.792 ± 0.019	0.968 ± 0.021	1.255 ± 0.025	1.702 ± 0.03	2.54 ± 0.039
